{
  "source": "patent US20240173371A1",
  "about": "“RHODIOLA CRENULATA COMPOSITIONS AND METHODS OF MAKING THE SAME” (NutriScience Innovations LLC, priority 2022, published 2024)",
  "origin": "cited, not measured here",
  "key": {"[1]": {"system": "CD3+T cells and CD4+T helper cells", "details": "Wistar male rats, supplementation"}, "[2]": {"details": "rats, oral, 20 and 40 mg/kg over two weeks"}, "[3]": {"details": "rats, oral, 20 and 40 mg/kg over two weeks", "remark": "listed apart in the source"}},
  "data": [
    {"smiles": "OC[C@H]1O[C@@H](OCCc2ccc(O)cc2)[C@H](O)[C@@H](O)[C@@H]1O", "note": "[salidroside]", "values": [
      {"measurement": "CD4+T helper cells", "setting": "[1]", "result": "increased"},
      {"measurement": "total CD3+T cells", "setting": "[1]", "result": "increased"},
      {"measurement": "outcome of a forced swim test", "setting": "[2]", "result": "improved"},
      {"measurement": "olfactory-bulbectomy-induced hyperactivity", "setting": "[3]", "result": "alleviated"}
    ]}
  ]
}
